Results as given in ChEMBL document CHEMBL1201862, “PubChem BioAssay data set” (2004).
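Method: 48-hour compound exposure of cells in 96-well plates, five concentrations, linear interpolation of endpoints. Abbreviation: GI50, concentration required for 50% inhibition of growth.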 Activity calls are given as the source filed them. Cut-off read from the data, not from the text of the source: active = GI50 up to about 1.1 µM and inactive = higher.

Legend:
Assay in all cases: growth of human tumour cells (NCI), 48 h
SF-295 = tested on: SF-295
UACC-62 = tested on: UACC-62
MDA-MB-435 = tested on: MDA-MB-435
CCRF-CEM = tested on: CCRF-CEM
IGROV-1 = tested on: IGROV-1
M14 = tested on: M14
MDA-N = tested on: MDA-N
T47D = tested on: T47D
SNB-19 = tested on: SNB-19
HCC 2998 = tested on: HCC 2998
ACHN = tested on: ACHN
NCI-H23 = tested on: NCI-H23
OVCAR-5 = tested on: OVCAR-5
RPMI-8226 = tested on: RPMI-8226
MDA-MB-231 = tested on: MDA-MB-231
NCI-H460 = tested on: NCI-H460
MOLT-4 = tested on: MOLT-4
HL-60 = tested on: HL-60
HCT-116 = tested on: HCT-116
SF-539 = tested on: SF-539

Measured: GI50

Cc1ccc2c(O)cc(-c3cc4ccccc4s3)nc2n1
inactive: SF-295 40.1 µM | UACC-62 > 68.7 µM | MDA-MB-435 > 88.1 µM | CCRF-CEM > 100 µM | IGROV-1 6.65 µM | M14 > 100 µM | MDA-N 98.9 µM | T47D 2.13 µM | SNB-19 > 100 µM | HCC 2998 > 100 µM | ACHN 47.6 µM | NCI-H23 > 56.2 µM | OVCAR-5 > 100 µM | RPMI-8226 4.33 µM | MDA-MB-231 > 100 µM | NCI-H460 50.9 µM | MOLT-4 > 100 µM | HL-60 > 100 µM | HCT-116 > 100 µM

Cc1nc2ccccc2nc1N1CCCC1
inactive: SF-295 > 100 µM | UACC-62 > 100 µM | MDA-MB-435 > 100 µM | IGROV-1 > 100 µM | M14 > 100 µM | MDA-N > 100 µM | T47D > 100 µM | SNB-19 > 100 µM | HCC 2998 > 100 µM | ACHN > 100 µM | NCI-H23 > 100 µM | OVCAR-5 > 100 µM | RPMI-8226 > 100 µM | MDA-MB-231 > 100 µM | NCI-H460 > 100 µM | HCT-116 > 100 µM

CCOC(=O)c1c(NCc2ccccc2)n(-c2ccccc2)c(=S)n(-c2ccccc2)c1=O
inactive: SF-295 49.4 µM | UACC-62 94.8 µM | MDA-MB-435 > 100 µM | CCRF-CEM 29.4 µM | IGROV-1 > 100 µM | M14 > 100 µM | MDA-N > 100 µM | T47D 66.4 µM | SNB-19 > 100 µM | HCC 2998 > 100 µM | ACHN > 100 µM | NCI-H23 > 100 µM | OVCAR-5 > 100 µM | RPMI-8226 35.6 µM | MDA-MB-231 > 100 µM | NCI-H460 > 100 µM | MOLT-4 34.5 µM | HL-60 35.6 µM

COC(=O)CCn1cnc2c(SC)ncnc21
inactive: SF-539 > 100 µM | SF-295 > 100 µM | UACC-62 > 100 µM | MDA-MB-435 > 100 µM | CCRF-CEM > 100 µM | IGROV-1 > 100 µM | M14 > 100 µM | MDA-N > 100 µM | T47D > 100 µM | SNB-19 > 100 µM | ACHN > 100 µM | NCI-H23 > 100 µM | OVCAR-5 > 100 µM | RPMI-8226 > 100 µM | MDA-MB-231 > 100 µM | NCI-H460 > 100 µM | MOLT-4 > 100 µM | HL-60 > 100 µM | HCT-116 > 100 µM

O=C(N/N=C/c1ccccc1)c1cccc2nc3ccccc3nc12
inactive: SF-539 > 100 µM | SF-295 17.1 µM | UACC-62 > 100 µM | MDA-MB-435 65 µM | CCRF-CEM > 74.8 µM | IGROV-1 63.5 µM | M14 35 µM | MDA-N 54.2 µM | T47D > 100 µM | SNB-19 > 73.1 µM | ACHN > 100 µM | NCI-H23 6.07 µM | OVCAR-5 > 100 µM | RPMI-8226 > 100 µM | MDA-MB-231 > 100 µM | NCI-H460 3.5 µM | MOLT-4 > 100 µM | HL-60 > 100 µM | HCT-116 > 100 µM

O=C(O)CNC(=O)C1NC(C(F)(F)F)(C(F)(F)F)OC1(C(F)(F)F)C(F)(F)F (centres undefined)
inactive: SF-539 > 100 µM | SF-295 92.3 µM | UACC-62 > 100 µM | MDA-MB-435 > 100 µM | IGROV-1 > 100 µM | M14 > 100 µM | MDA-N > 100 µM | T47D > 100 µM | SNB-19 > 100 µM | ACHN > 100 µM | NCI-H23 > 100 µM | OVCAR-5 > 100 µM | RPMI-8226 > 100 µM | MDA-MB-231 > 100 µM | NCI-H460 > 100 µM | MOLT-4 > 100 µM | HL-60 > 100 µM | HCT-116 > 100 µM

COc1ccccc1N1CCN(S(=O)(=O)c2ccc(Cl)cc2)C1=N
inactive: SF-539 81.3 µM | SF-295 > 100 µM | UACC-62 26.3 µM | MDA-MB-435 45.9 µM | M14 26.2 µM | MDA-N 49.3 µM | T47D 68.7 µM | SNB-19 51.3 µM | ACHN 48.9 µM | NCI-H23 60 µM | OVCAR-5 22.4 µM | RPMI-8226 93.8 µM | MDA-MB-231 37.1 µM | NCI-H460 33.4 µM | MOLT-4 43 µM | HCT-116 27.9 µM

CCOC(=O)C1CN(C2CC2)CCC1=O (centres undefined)
inactive: SF-295 > 100 µM | UACC-62 > 100 µM | MDA-MB-435 > 100 µM | CCRF-CEM > 100 µM | IGROV-1 > 100 µM | M14 > 100 µM | MDA-N > 100 µM | T47D > 100 µM | SNB-19 > 100 µM | HCC 2998 > 100 µM | ACHN > 100 µM | NCI-H23 > 100 µM | OVCAR-5 > 100 µM | RPMI-8226 > 100 µM | MDA-MB-231 > 100 µM | NCI-H460 > 100 µM | MOLT-4 > 100 µM | HL-60 > 100 µM | HCT-116 > 100 µM

COC(=O)N[C@@H]1C[C@H]2CC[C@]1(O[Si](C(C)C)(C(C)C)C(C)C)C(=O)C2
inactive: SF-295 14.7 µM | UACC-62 15.6 µM | MDA-MB-435 17.9 µM | CCRF-CEM 18 µM | IGROV-1 13.6 µM | M14 18.5 µM | MDA-N 21.9 µM | T47D 19 µM | SNB-19 18.1 µM | ACHN 18.4 µM | NCI-H23 17.1 µM | OVCAR-5 18.5 µM | RPMI-8226 15.8 µM | MDA-MB-231 20.5 µM | NCI-H460 20.7 µM | MOLT-4 24.3 µM | HL-60 16.9 µM | HCT-116 18.5 µM

N#Cc1nc(C(O)c2ccccc2)oc1N (centres undefined)
inactive: SF-539 > 100 µM | SF-295 > 100 µM | UACC-62 > 100 µM | CCRF-CEM > 100 µM | IGROV-1 > 100 µM | M14 > 100 µM | MDA-N > 100 µM | T47D > 100 µM | SNB-19 > 100 µM | ACHN > 100 µM | NCI-H23 > 100 µM | OVCAR-5 > 100 µM | RPMI-8226 > 100 µM | MDA-MB-231 > 100 µM | MOLT-4 > 100 µM | HL-60 > 100 µM | HCT-116 > 100 µM

N=C(N)NC(=N)Nc1c(F)c(F)c(F)c(F)c1F
inactive: SF-539 > 100 µM | SF-295 > 100 µM | UACC-62 > 100 µM | MDA-MB-435 > 100 µM | IGROV-1 > 100 µM | M14 21.1 µM | MDA-N 69.7 µM | T47D 61.8 µM | SNB-19 > 100 µM | ACHN > 100 µM | NCI-H23 87.1 µM | OVCAR-5 > 100 µM | RPMI-8226 52.7 µM | MDA-MB-231 62.2 µM | NCI-H460 90.4 µM | HCT-116 70.5 µM

CC1(C)CC[C@]2(C(=O)O)CC[C@]3(C)C(=CC[C@@H]4[C@@]5(C)CC[C@H](OC6OC(C(=O)O)C(O)C(O)C6O)C(C)(C)[C@@H]5CC[C@]43C)[C@@H]2C1 (some centres undefined)
inactive: SF-295 15.2 µM | UACC-62 18.4 µM | MDA-MB-435 19.2 µM | CCRF-CEM 21 µM | IGROV-1 20 µM | M14 16.9 µM | MDA-N 18.4 µM | T47D 18.4 µM | SNB-19 22 µM | HCC 2998 18.8 µM | ACHN 16.1 µM | NCI-H23 18.9 µM | OVCAR-5 16.2 µM | RPMI-8226 19.8 µM | MDA-MB-231 18.2 µM | NCI-H460 18.7 µM | MOLT-4 19.8 µM | HL-60 18.2 µM | HCT-116 16.8 µM

Cn1c(-c2ccccc2)cc(-c2ccc3c(c2)OCO3)c1-c1cccs1
inactive: SF-539 > 100 µM | SF-295 > 100 µM | UACC-62 > 100 µM | MDA-MB-435 > 100 µM | CCRF-CEM > 100 µM | IGROV-1 > 100 µM | M14 > 100 µM | MDA-N > 100 µM | T47D > 100 µM | SNB-19 > 100 µM | HCC 2998 > 100 µM | ACHN > 100 µM | NCI-H23 64.7 µM | OVCAR-5 > 100 µM | RPMI-8226 > 100 µM | NCI-H460 > 100 µM | MOLT-4 > 100 µM | HL-60 > 100 µM | HCT-116 96.8 µM

O=C(O)C(C1NCCS1)N1Cc2ccccc2C1 (centres undefined)
inactive: SF-539 > 100 µM | SF-295 > 100 µM | UACC-62 > 100 µM | MDA-MB-435 > 100 µM | CCRF-CEM > 100 µM | IGROV-1 > 100 µM | M14 > 100 µM | MDA-N > 100 µM | T47D > 100 µM | SNB-19 > 100 µM | ACHN > 100 µM | NCI-H23 > 100 µM | OVCAR-5 > 100 µM | RPMI-8226 > 100 µM | MDA-MB-231 > 100 µM | NCI-H460 > 100 µM | MOLT-4 > 100 µM | HL-60 > 100 µM | HCT-116 > 100 µM

COc1ccc2[nH]c3c(c2c1)CC(=O)N1CCC[C@H](C1)CC31OCCCO1
inactive: SF-295 > 100 µM | UACC-62 77.1 µM | MDA-MB-435 > 100 µM | CCRF-CEM 64.6 µM | IGROV-1 92.7 µM | M14 > 100 µM | MDA-N > 100 µM | T47D > 100 µM | SNB-19 > 100 µM | HCC 2998 > 100 µM | ACHN > 100 µM | NCI-H23 > 100 µM | OVCAR-5 > 100 µM | RPMI-8226 > 100 µM | MDA-MB-231 > 100 µM | NCI-H460 > 100 µM | HCT-116 > 100 µM
